Paper PMC7822874, “Chemoprotective antimalarials identified through quantitative high-throughput screening of Plasmodium blood and liver stage parasites” (Scientific Reports, 2021)

What follows are compounds tested on Plasmodium falciparum Dd2 asexual blood stage parasites (assay: microbe, parasite or virus in culture). Details: Plasmodium falciparum, DD2, Erythrocyte, 72 h.
Set-up: species or system Plasmodium falciparum Dd2 in human erythrocytes; single determination (one 11-point concentration-response curve)

Row | Compound | AC50 [µM]
1 | CCCCCCSc1ccc([C@@H]2[C@H]3C(=O)N(CC)C(=O)[C@H]3[C@]3(C(=O)OC)CCCCN23)cc1OC [MLS001362153-01] | 15
2 | O=C(c1ccco1)c1cn(CCOc2ccc(F)cc2)c2ccccc12 [NCGC00101884-01] | 6.68

Same assay, conditions: Plasmodium falciparum, DD2, Erythrocyte, 72 h; read-out: AC50

Row | Compound | AC50 [µM]
3 | Cc1ccc(CN2CCCC(Cc3ncc(C)n3Cc3ccccc3)C2)o1 (stereo not drawn) [NCGC00469705-01] | 9.44
4 | O=C(c1nc(-c2cccc(C(F)(F)F)c2)c2cnccn12)N1CCCC1 [NCGC00476432-01] | 10.6
5 | Cc1cc(Nc2cccc(C(F)(F)F)c2)nc2ccc(NC(=O)c3cncc(Br)c3)cc12 [NCGC00124348-01] | 2.37
6 | COc1ccccc1N1CCN(C(c2cc3ccc(C)cc3nc2O)c2nnnn2C2CCCC2)CC1 (stereo not drawn) [MLS000077380-01] | 7.5
7 | O=C(NC1=C(Nc2ccc(F)cc2)C(=O)c2ccccc2C1=O)c1ccc(Cl)cc1 [MLS000375026-01] | 0.841
8 | CC1=C[C@@H](CN2CCN(c3ncccn3)CC2)[C@H](C(C)C)C[C@H]1Cc1nnc(COc2ccc(F)cc2)o1 [NCGC00395820-01] | 0.75
9 | CCOC(=O)c1c(NC(=O)CSc2nc3ccccc3c(=O)n2-c2ccccc2)sc(C(C)=O)c1C [MLS000335169-01] | 13.3
10 | CCO[C@@H]1OC(C(=O)N2CCN(Cc3ccc4c(c3)OCO4)CC2)=C[C@H](c2cn(C(C)=O)c3ccccc23)[C@H]1CCCO [MLS000834519-01] | 9.44
11 | CC(C)N1CC=C(c2c[nH]c3ccccc23)CC1 [MLS000093714-01] | 10.6
12 | CCCCCCNC(=O)Cc1csc2nc(C)c(-c3cc(C)n(-c4cccc(C)c4)n3)c(=O)n12 [NCGC00473470-01] | 15
13 | Cc1ccc(NC(=O)Cn2c(-c3ccccc3)nc(C)c(CCO)c2=O)cc1Cl [NCGC00470911-01] | 10.6
14 | O=C(Nc1cnc2ccccc2c1)c1cccc(-n2cnnn2)c1 [MLS000032104-01] | 2.66
15 | Cc1ccc(-c2nc(NC(=O)c3cc(C(C)(C)C)nn3C)sc2C)cc1Cl [MLS000860650-01] | 10.6
16 | CCOC(=O)c1c(CN2CCOCC2)n(-c2ccccc2)c2cc(Br)c(O)cc12 [MLS000530556-01] | 2.99
17 | CN(C)Cc1cn2c(=O)n(C)cc(-c3cccc(C(F)(F)F)c3)c2n1 [NCGC00416418-01] | 21.7
18 | CN1N=C2c3ccccc3CCC2C1c1ccc(F)cc1 (stereo not drawn) [MLS000861852-01] | 5.96
19 | CCCOc1cccc(C2c3c(oc4cc(C)c(C)cc4c3=O)C(=O)N2CCCN2CCOCC2)c1 (stereo not drawn) [NCGC00101917-01] | 13.3
20 | CCOC(=O)C1(c2ccccc2)CCN(CCC(C#N)(c2ccccc2)c2ccccc2)CC1 [NCGC00167963-01] | 5.31
21 | O=C1CO[C@H]2CCN(Cc3ccc4c(c3)CCO4)CC[C@@H]2N1Cc1ccccc1 [NCGC00409937-01] | 17.2
22 | Cc1noc(C)c1-c1cc2c(cc(C)n2CCN(C)C)c(Nc2ccn(C)n2)n1 [NCGC00417199-01] | 13.7
23 | COc1cccc(CN2C(=O)OC3(CCN(Cc4ccccc4OC)CC3)C2(C)c2cccnc2)c1 (stereo not drawn) [NCGC00415564-01] | 4.73
24 | CC1=C[C@@H](CNC2CC2)[C@H](C(C)C)C[C@H]1Cc1nnc(-c2ccc(C)cc2)o1 [NCGC00394380-01] | 17.2
25 | Cc1ccc(CN2CC[C@@H]3C(=O)NCCCCCCN(Cc4ccncc4)[C@@H]3C2)o1 [NCGC00467213-01] | 2.11
26 | O=c1nc(C2CCCN(Cc3ccccn3)C2)[nH]n1-c1ccc(Cl)cc1 (stereo not drawn) [NCGC00477746-01] | 2.37
27 | COc1ccc(-c2noc(-c3cccn3CC(=O)Nc3ccc(C)cc3C)n2)cc1F [NCGC00445492-01] | 10.6
28 | CC(C)N1CCC2(CC1)CN(C(=O)Cc1cccc(F)c1)Cc1ccccc1O2 [NCGC00456475-01] | 15

Row | Compound | AC50 [µM]
29 | Cc1ccc(N(Cc2cccs2)C(=O)C(C)Oc2ccc(Cl)c(C)c2)cc1 (stereo not drawn) [NCGC00119071-01] | 7.5
30 | CCC(=O)C1=C(c2cccc([N+](=O)[O-])c2)N(C(=O)CC)n2c(nnc2-c2ccccc2)S1 [NCGC00137270-01] | 5.31
31 | CCOC(=O)C1CCN(c2cc(=O)n(-c3ccccc3Cl)c(=O)[nH]2)CC1 [MLS000045867-01] | 8.41
32 | CCCCCCCn1c(NC(=O)CC)nc2ccccc21 [MLS001042192-01] | 16.8
33 | Cc1cc(NC(=O)CSc2ccc3nnc(-c4cccc(F)c4)n3n2)no1 [MLS000093339-01] | 5.96
34 | Cc1cccc(OCCSc2nc3ccc(NC(=O)c4cccs4)cc3s2)c1 [NCGC00118842-01] | 9.44
35 | CC(C)CCN1CCn2c(nn(-c3ccc([N+](=O)[O-])cc3)c2=O)C1 [NCGC00479600-01] | 17.2
36 | CN(C)C[C@@H]1CN(C)C[C@H]1N[S+](=O)([O-])c1ccc(Br)cc1 [NCGC00462726-01] | 13.3
37 | CCn1c(N2CCC(C)CC2)nc2c1c(=O)n(C)c(=O)n2C [MLS000115844-01] | 5.96
38 | COc1cc2nc(SCc3ccc(F)cc3)n3nc(CCn4c(C)nc5ccccc54)nc3c2cc1OC [NCGC00108638-01] | 2.99
39 | CCOc1ccc(-c2nonc2NC(=O)c2ccc(C)cc2)cc1OCC [NCGC00116031-01] | 1.68
40 | Cc1ccccc1Nc1nc(-c2cccnc2)cs1 [MLS001206645-01] | 9.44
41 | CCCNCC(O)COc1ccccc1C(=O)CCc1ccccc1 (stereo not drawn) [NCGC00015819-06] | 0.841
42 | COc1ccc(CCn2c(=N)c(C(=O)NCc3ccco3)cc3c(=O)n4cccc(C)c4nc32)cc1 [MLS000040240-01] | 1.68
43 | CN(C)CCCNc1ccc(-c2cc(Nc3cccc(Cl)c3)ncn2)cn1 [MLS000911553-01] | 9.44
44 | COc1ccc(-n2nc(C(=O)NCC(=O)N3CCN(c4ccccc4OC)CC3)c3ccccc3c2=O)cc1OC [MLS000936245-01] | 6.68
45 | Cc1cccc(C)c1-n1ncc(C(=O)NCCCN2CCC(C)CC2)c1C1CCN(C(=O)OC(C)(C)C)CC1 [NCGC00127064-01] | 15
46 | Cc1ccc([S+](=O)([O-])N[C@@H]2CN(C)C[C@H]2CN(C)C)cc1F [NCGC00462728-01] | 15
47 | CC1(c2ccccc2)N(Cc2ccccc2F)C(=O)OC12CCN(Cc1cccc(O)c1)CC2 (stereo not drawn) [NCGC00415649-01] | 6.68
48 | COC(=O)[C@H](Cc1ccc(OC)cc1)NC(=O)[C@H]1CN(C(=O)c2ccc(N(C)C)cc2)CCN1C(=O)C1CCCCC1 [NCGC00398660-01] | 0.668
49 | CC(=O)C1=C(c2ccccc2)N(C(C)=O)n2c(nnc2C2CCCCC2)S1 [NCGC00137174-01] | 4.22
50 | COc1cc(/C=C(\C#N)c2nc3ccccc3[nH]2)cc(Cl)c1OCc1ccccc1Cl [NCGC00102602-01] | 5.31
51 | C=C[C@]1(C)C[C@@H](OC(=O)CSC(C)(C)CNC(=O)[C@H](N)C(C)C)[C@]2(C)[C@H](C)CC[C@]3(CCC(=O)[C@H]32)[C@@H](C)[C@@H]1O [NCGC00167968-01] | 8.41
52 | C[n+]1c(-c2ccccc2)cc(-c2ccc(Cl)cc2)cc1-c1ccccc1.[O-][Cl+3]([O-])([O-])O [MLS001018624-01] | 6.68
53 | N#Cc1ccc(CN2CC[C@@H]3C(=O)NCCCCCCN(Cc4ccncc4)[C@@H]3C2)cc1 [NCGC00467216-01] | 10.6
54 | CCc1c(C)c2ccc(O)c(CN3CCN(c4ccccc4)CC3)c2oc1=O [NCGC00119657-01] | 2.37

Row | Compound | AC50 [µM]
55 | Cn1cccc1CN1CCC(N2CC(OCC3CC3)C23CCCCC3)CC1 (stereo not drawn) [NCGC00463411-01] | 7.5
56 | Cn1ccc(NCc2nnc(C(=O)N3CCC[C@@H]3C(c3ccccc3)c3ccccc3)n2-c2ccccc2)n1 [NCGC00415774-01] | 1.33
57 | O=C(Nc1ccc2c(N3CCOCC3)ncnc2c1)c1cccc(Cl)c1 [NCGC00425551-01] | 4.73
58 | CC(C)n1cc(CN2CCCC23CCN(c2ccc(C(F)(F)F)cn2)CC3)cn1 [NCGC00442913-01] | 9.44
59 | COc1cc(O)c(C(CCN2CCOCC2)c2ccc3c(c2)OCO3)c(OC)c1 (stereo not drawn) [MLS000879477-01] | 4.22
60 | Cc1ccc(NC(=O)Cn2c(=O)n(-c3ccc(C)cc3)c(=O)c3ccc(C(=O)NCc4ccccc4Cl)cc32)cc1 [NCGC00108700-01] | 5.31
61 | CN(C)c1ccc(CN2CCC3(CC2)COc2ccccc2C(=O)N3)cc1 [NCGC00477464-01] | 2.66
62 | Cc1ccccc1CN1C(=O)CN=C(c2ccccc2)c2cc(Cl)ccc21 [NCGC00140581-01] | 16.8
63 | CNC(=O)CCn1ncc2cc(OCc3ccccc3-c3ccc(OC)cc3Cl)ccc21 [NCGC00418132-01] | 16.8
64 | Oc1cc(Nc2ccccc2)cc2cccnc12 [NCGC00183789-01] | 6.68
65 | Oc1ccccc1CN[C@H]1[C@H](O)[C@@H](N2CCC(Cc3ccccc3)CC2)[C@@H]2OC[C@H]1O2 [NCGC00400924-01] | 3.44
66 | COc1ccccc1CN1CCC(CNC(=O)c2cnn(-c3ccc(Cl)cc3)c2C2CCN(C(=O)OC(C)(C)C)CC2)CC1 [NCGC00126796-01] | 2.66
67 | O=C1Nc2ccccc2C12Nc1ccccc1-c1nc3ccccc3n12 (stereo not drawn) [MLS000051512-01] | 6.68
68 | O=C1NCc2ccccc2CC12CCCN(CC1=CCCCC1)C2 (stereo not drawn) [NCGC00377566-01] | 3.31
69 | Cn1nc(C2CCCCC2)cc1[C@H]1CN2CC[C@H]1C[C@@H]2CNC(=O)COc1ccccc1 [NCGC00399666-01] | 15
70 | CCOC(=O)c1cnn(-c2ccc(C(=O)Nc3ccc(C(C)=O)cc3)cc2)c1N [NCGC00137680-01] | 4.73
71 | CC(C)C(=O)NCC1CN(Cc2ccccc2)C(=O)c2c(ccnc2-c2ccc(OCC(=O)O)cc2)O1 (stereo not drawn) [NCGC00420601-01] | 2.11
72 | COC1=CC(=O)C(=C(C)N/N=C(\S)NCCc2ccccc2)C=C1 [MLS001170945-01] | 3.35
73 | CCc1c(C)[nH]c2ccccc2c1=O [MLS000030676-01] | 10.6
74 | Cc1ccc(C(=O)N/N=C/c2ccc([N+](=O)[O-])s2)cc1 [MLS000519463-01] | 5.96
75 | CCc1c(C)c(C#N)c2nc3ccccc3n2c1NCC1CCCO1 (stereo not drawn) [MLS000556827-01] | 2.99
76 | Fc1ccccc1CN1CCC[C@H]1c1nc(-c2ccnc(N3CCOCC3)c2)no1 [NCGC00395913-01] | 15.3
77 | COc1ccc(C)cc1NCc1cc(=O)oc2cc(-c3ccccc3)c(O)cc12 [MLS000331048-01] | 5.31
78 | COc1ccc(CCNC(=O)Cn2c(-c3cccs3)cc3cc(F)ccc32)cc1OC [NCGC00111974-01] | 4.73
